Reference: patent US11506670B2, “Method of genome-wide direct identification of electrophile-sensing targets” (Cornell University, priority 2018, dated 2022)

Columns and labels:
Ube2N = biological target: T1, Ube2N (Homo sapiens, UniProt P61088); experiment: Biotin azide/streptavidin pulldown of HNEylated proteins from mammalian lysate; format: cell-based; settings: HEK293T, Halo-(FLAG)-Ube2V2 and HA-Ube2N
T1 construct: expressed in transfected cells; host or cells: HEK 293T
Description: HEK 293T cells were seeded in 60 cm^2 plate. After the cells reached 60% confluence (˜18-24 h), the old media were replaced with fresh 8 mL complete media. Cells were transfected with 7.5 μg of the designated plasmids encoding the HaloTag fusion gene and 30 μL PEI (1 mg/mL) in 600 μL in Opti-MEM media for 24-36 h after which the cells were treated with 25 μM Ht-PreHNE or without alkyne (control) for 2.5 h. Rinsing and light shining protocol were as described above. Cells were harvested, washed twice with chilled 1× DPBS and flash frozen.
Mammalian cell lysis was performed in 200 μL of lysis buffer containing in final concentrations 50 mM HEPES (pH 7.6), 150 mM NaCl, 1% Nonidet P-40 and 1× Roche cOmplete, mini, EDTA-free protease inhibitor cocktail by rapid freeze-thaw (×3). Lysate was clarified by centrifugation at 18,000×g for 30 min at 4° C.
Total protein concentration from either mammalian cell lysate or zebrafish lysate was determined using Bradford assay with BSA as standard. The lysate was subsequently diluted to 2 mg/mL with a buffer made up of 50 mM HEPES (pH 7.6) and 0.3 mM TCEP, and subjected to Click reaction with biotin azide for 30 min at 37° C. The final concentrations of each components were: 1% SDS, 5% t-BuOH, 200 μM Biotin azide, 2 mM TCEP, 0.9 mM CuSO4 and 0.1 mM Cu(TBTA). The lysate proteins were precipitated by adding 4 volumes of EtOH pre-chilled at −20° C. […]

NF-κB-signaling (Ube2V1) = experiment: NF-κB dual luciferase reporter assay after T-REX on Halo-Ube2V1; format: cell-based, human; settings: T-REX HNEylation of Ube2V1, coexpression of Ube2N
Description: 1.5-1.6×10^5 HEK 293T cells were seeded in each well of a 48-well plate. 24 h later, the cells were transfected with 120 ng of the designated HaloTag fusion gene plasmid and 120 ng of NF-kB-Firefly luciferase: pCMV-Renilla luciferase (40:1) mix, using TransIT-2020 transfection agent. 24 h post-transfection, cells were treated with 25 μM Ht-PreHNE or vehicle (corresponding volume of DMSO alone) for 2.5 h, rinsed three times and irradiated with 365 nm UV light for 10 min. The cells were incubated for a further 8 h. For dual luciferase assay, cells in each well were gently washed with 1×DPBS and lysed in 65 μL of 1× passive lysis buffer containing in final concentrations 25 mM Tris (pH 7.8), 2 mM 1,2-CDTA, 2 mM DTT, 1 mg/mL BSA, 1% Triton X-100, and 10% Glycerol. 20 μL of the lysate was transferred to a white opaque 96-well plate (Corning). Firefly luciferase was read after adding 50 μL Firefly substrate (75 mM HEPES pH 8.0, 4 mM MgSO4, 20 mM DTT, 0.1 mM EDTA, 0.53 mM ATP, 0.27 mM Coenzyme-A, 0.47 mM D-Luciferin Firefly). Subsequently, 50 μL of Stop and Glow substrate (7.5 mM sodium acetate pH 5.0, 400 mM sodium sulfate, 10 mM CDTA, 15 mM sodium pyrophosphate, 0.025 mM APMBT, 5.5 μM Coelenterazine) was added and Renilla luciferase activity was measured.

T1 sequence (P61088 whole entry): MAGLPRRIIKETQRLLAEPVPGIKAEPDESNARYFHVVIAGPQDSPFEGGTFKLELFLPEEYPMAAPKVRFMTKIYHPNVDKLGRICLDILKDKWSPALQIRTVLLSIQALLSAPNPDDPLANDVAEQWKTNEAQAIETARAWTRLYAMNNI
T1 sequence (Q15819 whole entry partner): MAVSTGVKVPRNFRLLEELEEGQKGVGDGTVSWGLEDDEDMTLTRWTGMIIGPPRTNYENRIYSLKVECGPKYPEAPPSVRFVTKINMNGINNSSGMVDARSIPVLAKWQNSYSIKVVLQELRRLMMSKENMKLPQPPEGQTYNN

What does the source list for `CCCCCC(O)/C=C/C=O` (centres unmarked) [HNE, 4-hydroxynonenal]?
HNEylation of Ube2N during T-REX delivery to Ube2V2 (affinity capture) (Ube2N): no detectable HNEylation of Ube2N; upregulation in NF-κB-signaling relative to all controls (NF-κB-signaling (Ube2V1)): 3 fold
